Molecules are shown by their SMILES.

This experiment deals with human LPAR1 (Homo sapiens (Human), UniProt Q92633). Put plainly: LPAR1 intracellular calcium mobilization assay (antagonist mode, FLIPR). Format: cell-based. The conditions noted are these: CHO-K1 EDG2 cells expressing human LPAR1, LPA 18:2 at EC80 (100 nM), test compound 0.5 nM to 10 μM. (In general: Calcium flux is commonly read through the fluorescence of an indicator in the cells.)
human LPAR1, sequence (Q92633 whole entry): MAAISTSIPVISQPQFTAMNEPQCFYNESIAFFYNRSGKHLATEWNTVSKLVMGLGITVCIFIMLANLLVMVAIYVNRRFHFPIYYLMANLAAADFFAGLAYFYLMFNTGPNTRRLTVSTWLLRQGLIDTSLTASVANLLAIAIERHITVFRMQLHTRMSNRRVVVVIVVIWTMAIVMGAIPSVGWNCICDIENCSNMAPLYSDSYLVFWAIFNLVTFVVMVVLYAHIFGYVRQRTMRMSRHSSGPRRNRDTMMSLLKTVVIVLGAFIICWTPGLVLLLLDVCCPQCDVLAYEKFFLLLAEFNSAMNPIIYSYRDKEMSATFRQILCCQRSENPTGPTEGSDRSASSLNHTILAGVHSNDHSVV
Turning to `C[C@@H](OC(=O)Nc1c(-c2ccc(NC(=O)c3ccnc(F)c3)cn2)nnn1C)c1cc(F)cnc1F` [Compound 213, (R)-1-(2,5-difluoropyridin-3-yl)ethyl (4-(5-(2-fluoroisonicotinamido)pyridin-2-yl)-1-methyl-1H-1,2,3-triazol-5-yl)carbamate], the half-maximal effective concentration (EC50) came to 175 nM.

For `C[C@@H](OC(=O)Nc1c(-c2ccc(NC(=O)[C@]3(F)C[C@H](O)C3)cn2)nnn1C)c1cccnc1Cl` [Compound 133, (R)-1-(2-chloropyridin-3-yl)ethyl (4-(5-((1r,3R)-1-fluoro-3-hydroxycyclobutane-1-carboxamido)pyridin-2-yl)-1-methyl-1H-1,2,3-triazol-5-yl)carbamate], the EC50 was 344 nM. The same measure for `C[C@@H](OC(=O)Nc1c(-c2cnc(NC(=O)C3(C#N)CC3)cn2)nnn1C)c1cccnc1Cl` [Compound 8, (R)-1-(2-chloropyridin-3-yl)ethyl (4-(5-(1-cyanocyclopropane-1-carboxamido)pyrazin-2-yl)-1-methyl-1H-1,2,3-triazol-5-yl)carbamate]: 154 nM; for `C[C@@H](OC(=O)Nc1c(-c2ccc(NC(=O)C3(C(F)F)CC3)cn2)nnn1C)c1cccnc1Cl` [Compound 116, (R)-1-(2-chloropyridin-3-yl)ethyl (4-(5-(1-(difluoromethyl)cyclopropane-1-carboxamido)pyridin-2-yl)-1-methyl-1H-1,2,3-triazol-5-yl)carbamate]: 322 nM; for `C[C@@H](OC(=O)Nc1c(-c2ccc(NC(=O)C3CC(F)(C#N)C3)cn2)nnn1C)c1cccnc1Cl` (stereo partly drawn) [Compound 123, (R)-1-(2-chloropyridin-3-yl)ethyl (4-(5-(3-cyano-3-fluorocyclobutane-1-carboxamido)pyridin-2-yl)-1-methyl-1H-1,2,3-triazol-5-yl)carbamate]: 626 nM. As to `CC(=O)Nc1ccc(-c2nnn(C)c2NC(=O)O[C@H](C)c2cc(Cl)cnc2F)nc1` [Compound 14, (R)-1-(5-chloro-2-fluoropyridin-3-yl)ethyl (4-(5-acetamidopyridin-2-yl)-1-methyl-1H-1,2,3-triazol-5-yl)carbamate], the EC50 is 1200 nM. Take `C[C@@H](OC(=O)Nc1c(-c2ccc(NC(=O)c3cnnc(C(F)(F)F)c3)cn2)nnn1C)c1cc(F)cnc1F` [Compound 259, (R)-1-(2,5-difluoropyridin-3-yl)ethyl (1-methyl-4-(5-(6-(trifluoromethyl)pyridazine-4-carboxamido)pyridin-2-yl)-1H-1,2,3-triazol-5-yl)carbamate]: the EC50 was found to be 101 nM.

Consider `C[C@@H](OC(=O)Nc1c(-c2ccc(NC(=O)C3CN(CC(F)(F)F)C3)cn2)nnn1C)c1cccnc1Cl` [Compound 309, (R)-1-(2-chloropyridin-3-yl)ethyl (1-methyl-4-(5-(1-(2,2,2-trifluoroethyl)azetidine-3-carboxamido)pyridin-2-yl)-1H-1,2,3-triazol-5-yl)carbamate], for which the EC50 stood at 133 nM. Turning to `C[C@@H](OC(=O)Nc1c(-c2ccc(NC(=O)C3(C#N)CC3)cn2)nnn1C)c1cccnc1F` [Compound 172, (R)-1-(2-fluoropyridin-3-yl)ethyl (4-(5-(1-cyanocyclopropane-1-carboxamido)pyridin-2-yl)-1-methyl-1H-1,2,3-triazol-5-yl)carbamate], the concentration giving a half-maximal response (EC50) worked out at 236 nM. As to `C[C@@H](OC(=O)Nc1c(-c2ccc(NC(=O)C34CC(S(C)(=O)=O)(C3)C4)cn2)nnn1C)c1cc(F)cnc1F` [Compound 215, (R)-1-(2,5-difluoropyridin-3-yl)ethyl (1-methyl-4-(5-(3-(methylsulfonyl)bicyclo[1.1.1]pentane-1-carboxamido)pyridin-2-yl)-1H-1,2,3-triazol-5-yl)carbamate], the concentration for a half-maximal effect (EC50) came out at 2000 nM.

For the compound `Cc1nc(-c2nnn(C)c2NC(=O)O[C@H](C)c2cc(F)cnc2F)ccc1NC(=O)C1(C#N)CC1` [Compound 313, (R)-1-(2,5-difluoropyridin-3-yl)ethyl (4-(5-(1-cyanocyclopropane-1-carboxamido)-6-methylpyridin-2-yl)-1-methyl-1H-1,2,3-triazol-5-yl)carbamate], the EC50 worked out at 51.8 nM.

For the compound `C[C@@H](OC(=O)Nc1c(-c2ccc(NC(=O)C3CCC3(F)F)cn2)nnn1C)c1cccnc1Cl` (stereo partly drawn) [Compound 63, (R)-1-(2-chloropyridin-3-yl)ethyl (4-(5-(2,2-difluorocyclobutane-1-carboxamido)pyridin-2-yl)-1-methyl-1H-1,2,3-triazol-5-yl)carbamate], the concentration giving a half-maximal response (EC50) was determined as 120 nM. For `Cc1ccc(C(=O)Nc2ccc(-c3nnn(C)c3NC(=O)O[C@H](C)c3cc(F)cnc3F)nc2)cn1` [Compound 221, (R)-1-(2,5-difluoropyridin-3-yl)ethyl (1-methyl-4-(5-(6-methylnicotinamido)pyridin-2-yl)-1H-1,2,3-triazol-5-yl)carbamate], the 50% effective concentration (EC50) amounted to 374 nM. As to `COc1cc(C(=O)Nc2ccc(-c3nnn(C)c3NC(=O)O[C@H](C)c3cc(F)cnc3F)nc2)ccn1` [Compound 223, (R)-1-(2,5-difluoropyridin-3-yl)ethyl (4-(5-(2-methoxyisonicotinamido)pyridin-2-yl)-1-methyl-1H-1,2,3-triazol-5-yl)carbamate], the EC50 stood at 118 nM.

As for `CO[C@H]1C[C@H](C(=O)Nc2ccc(-c3nnn(C)c3NC(=O)O[C@H](C)c3cccnc3Cl)nc2)C1` [Compound 156, (R)-1-(2-chloropyridin-3-yl)ethyl (4-(5-((1r,3R)-3-methoxycyclobutane-1-carboxamido)pyridin-2-yl)-1-methyl-1H-1,2,3-triazol-5-yl)carbamate], the EC50 came out at 50.7 nM. On to `C[C@@H](OC(=O)Nc1c(-c2ccc(NC(=O)C3CC(C)(C)C3)cn2)nnn1C)c1cccnc1Cl` [Compound 84, (R)-1-(2-chloropyridin-3-yl)ethyl (4-(5-(3,3-dimethylcyclobutane-l-carboxamido)pyridin-2-yl)-1-methyl-1H-1,2,3-triazol-5-yl)carbamate], for which the half-maximal effective concentration (EC50) turned out to be 14.5 nM.

Turning to `C[C@@H](OC(=O)Nc1c(-c2ccc(NC(=O)[C@H]3C[C@H](O)C3)cn2)nnn1C)c1cccnc1Cl` [Compound 154, (R)-1-(2-chloropyridin-3-yl)ethyl (4-(5-((1r,3R)-3-hydroxycyclobutane-1-carboxamido)pyridin-2-yl)-1-methyl-1H-1,2,3-triazol-5-yl)carbamate], the EC50 was 668 nM.

Regarding `Cc1noc2cc(C(=O)Nc3ccc(-c4nnn(C)c4NC(=O)O[C@H](C)c4cc(F)cnc4F)nc3)ccc12` [Compound 279, (R)-1-(2,5-difluoropyridin-3-yl)ethyl (1-methyl-4-(5-(3-methylbenzo[d]isoxazole-6-carboxamido)pyridin-2-yl)-1H-1,2,3-triazol-5-yl)carbamate], the half-maximal effective concentration (EC50) came to 97.4 nM.

As to `C[C@@H](OC(=O)Nc1c(-c2ccc(NC(=O)C3(CN)CC(F)(F)C3)cn2)nnn1C)c1cc(F)cnc1Cl` [Compound 304, (R)-1-(2-chloro-5-fluoropyridin-3-yl)ethyl (4-(5-(1-(aminomethyl)-3,3-difluorocyclobutane-1-carboxamido)pyridin-2-yl)-1-methyl-1H-1,2,3-triazol-5-yl)carbamate], the half-maximal effective concentration (EC50) turned out to be 46.4 nM. For `C[C@@H](OC(=O)Nc1c(-c2ccc(NC(=O)c3cnc(C#N)nc3)cn2)nnn1C)c1cc(F)cnc1F` [Compound 235, (R)-1-(2,5-difluoropyridin-3-yl)ethyl (4-(5-(2-cyanopyrimidine-5-carboxamido)pyridin-2-yl)-1-methyl-1H-1,2,3-triazol-5-yl)carbamate], the 50% effective concentration (EC50) amounted to 26.5 nM. The same measure for `C[C@@H](OC(=O)Nc1c(-c2ccc(NC(=O)c3cnc4cnn(C)c4c3)cn2)nnn1C)c1cc(F)cnc1F` [Compound 278, (R)-1-(2,5-difluoropyridin-3-yl)ethyl (1-methyl-4-(5-(1-methyl-1H-pyrazolo[4,3-b]pyridine-6-carboxamido)pyridin-2-yl)-1H-1,2,3-triazol-5-yl)carbamate]: 810 nM; for `CC(OC(=O)Nc1c(-c2ccc(NC(=O)C(F)(F)F)cn2)nnn1C)c1cc(Br)cnc1Cl` (stereo not drawn) [Compound 13, 1-(5-bromo-2-chloropyridin-3-yl)ethyl (1-methyl-4-(5-(2,2,2-trifluoroacetamido)pyridin-2-yl)-1H-1,2,3-triazol-5-yl)carbamate]: 148 nM. Turning to `C[C@@H](OC(=O)Nc1c(-c2cc(F)c(NC(=O)C34CC(C#N)(C3)C4)cn2)nnn1C)c1cccnc1Cl` [Compound 184, (R)-1-(2-chloropyridin-3-yl)ethyl (4-(5-(3-cyanobicyclo[1.1.1]pentane-1-carboxamido)-4-fluoropyridin-2-yl)-1-methyl-1H-1,2,3-triazol-5-yl)carbamate], the EC50 was 81.8 nM. As to `C[C@@H](OC(=O)Nc1c(-c2ccc(NC(=O)c3cc(F)nc(F)c3F)cn2)nnn1C)c1cc(F)cnc1F` [Compound 264, (R)-1-(2,5-difluoropyridin-3-yl)ethyl (1-methyl-4-(5-(2,3,6-trifluoroisonicotinamido)pyridin-2-yl)-1H-1,2,3-triazol-5-yl)carbamate], the half-maximal effective concentration (EC50) stood at 203 nM.

As for `C[C@@H](OC(=O)Nc1c(-c2ccc(NC(=O)[C@H]3CCC(=O)N3)cn2)nnn1C)c1cccnc1Cl` [Compound 152, (R)-1-(2-chloropyridin-3-yl)ethyl (1-methyl-4-(5-((R)-5-oxopyrrolidine-2-carboxamido)pyridin-2-yl)-1H-1,2,3-triazol-5-yl)carbamate], the EC50 stood at 3990 nM. On to `C[C@@H](OC(=O)Nc1c(-c2ccc(NC(=O)[C@@]3(C#N)C[C@@H]3F)cn2)nnn1C)c1cc(F)cnc1F` [Compound 270, (R)-1-(2,5-difluoropyridin-3-yl)ethyl (4-(5-((1S,2S)-1-cyano-2-fluorocyclopropane-1-carboxamido)pyridin-2-yl)-1-methyl-1H-1,2,3-triazol-5-yl)carbamate], for which the EC50 came to 168 nM. As to `C[C@@H](OC(=O)Nc1c(-c2ccc(NC(=O)[C@H]3C[C@@H]3F)cn2)nnn1C)c1cccnc1Cl` [Compound 52, (R)-1-(2-chloropyridin-3-yl)ethyl (4-(5-((1R,2S)-2-fluorocyclopropane-1-carboxamido)pyridin-2-yl)-1-methyl-1H-1,2,3-triazol-5-yl)carbamate], the EC50 stood at 622 nM.

What is called EC50 is the concentration giving half of the maximal effect.

The values above are taken from patent US11912686B2 (Gilead Sciences, Inc., priority 2020, dated 2024).
